Measurements taken from US10562908B2, “Ortho substituted phenylpyrazolo- and phenylpyrrolo-pyridazine derivatives having multimodal activity against pain” (priority 2016, dated 2020).
Like-named read-outs stand apart in the source and are kept apart here.

Assays:
[1] = molecular target: Human α2δ-1 subunit of Cav2.2 calcium channel (Homo sapiens, UniProt P54289); assay: Human α2δ-1 subunit of Cav2.2 calcium channel assay ([3H]-Gabapentin); format: binding
In short: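 α2δ-1-enriched membranes (2.5 μg) were incubated with 15 nM [3H]-gabapentin in 10 mM Hepes-KOH pH 7.4 for 60 min at 27 °C. Non-specific binding was defined with 10 μM pregabalin. Compounds were tested at five concentrations, with filtration and scintillation counting.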

human μ-opioid receptor = molecular target: T1, human μ-opioid receptor (Homo sapiens, UniProt P35372); assay: Human μ-opioid receptor radioligand assay ([3H]-DAMGO); format: binding
T1 construct: expressed in transfected cells; host or cells: CHO-K1
T1 sequence (P35372 whole entry): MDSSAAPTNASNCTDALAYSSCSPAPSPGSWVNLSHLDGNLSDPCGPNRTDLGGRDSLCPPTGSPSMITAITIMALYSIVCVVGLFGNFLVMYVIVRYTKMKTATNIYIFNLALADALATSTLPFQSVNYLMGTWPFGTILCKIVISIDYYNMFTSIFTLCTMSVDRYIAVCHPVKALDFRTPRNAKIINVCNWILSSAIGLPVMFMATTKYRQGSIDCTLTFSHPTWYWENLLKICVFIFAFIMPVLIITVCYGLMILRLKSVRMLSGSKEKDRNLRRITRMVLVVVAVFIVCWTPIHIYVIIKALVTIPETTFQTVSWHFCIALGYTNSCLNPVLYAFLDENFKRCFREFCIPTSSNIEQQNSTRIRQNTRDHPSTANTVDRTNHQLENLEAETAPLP
In short: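 Transfected CHO-K1 membranes (20 μg) incubated with 1 nM [3H]-DAMGO in 50 mM Tris-HCl, 5 mM MgCl2, pH 7.4, 60 min at 27 °C; non-specific binding with 10 μM naloxone. Test compound at five concentrations; bound radioactivity counted after filtration by scintillation.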

[2] = human α2δ-1 enriched membranes, 15 nM [3H]-Gabapentin, read-out: Binding α2δ-1 (Ki)
[3] = transfected CHO-K1 cell membranes, 1 nM [3H]-DAMGO, read-out: Binding μ (Ki)

Human α2δ-1 subunit of Cav2.2 calcium channel, sequence (P54289 25-1103): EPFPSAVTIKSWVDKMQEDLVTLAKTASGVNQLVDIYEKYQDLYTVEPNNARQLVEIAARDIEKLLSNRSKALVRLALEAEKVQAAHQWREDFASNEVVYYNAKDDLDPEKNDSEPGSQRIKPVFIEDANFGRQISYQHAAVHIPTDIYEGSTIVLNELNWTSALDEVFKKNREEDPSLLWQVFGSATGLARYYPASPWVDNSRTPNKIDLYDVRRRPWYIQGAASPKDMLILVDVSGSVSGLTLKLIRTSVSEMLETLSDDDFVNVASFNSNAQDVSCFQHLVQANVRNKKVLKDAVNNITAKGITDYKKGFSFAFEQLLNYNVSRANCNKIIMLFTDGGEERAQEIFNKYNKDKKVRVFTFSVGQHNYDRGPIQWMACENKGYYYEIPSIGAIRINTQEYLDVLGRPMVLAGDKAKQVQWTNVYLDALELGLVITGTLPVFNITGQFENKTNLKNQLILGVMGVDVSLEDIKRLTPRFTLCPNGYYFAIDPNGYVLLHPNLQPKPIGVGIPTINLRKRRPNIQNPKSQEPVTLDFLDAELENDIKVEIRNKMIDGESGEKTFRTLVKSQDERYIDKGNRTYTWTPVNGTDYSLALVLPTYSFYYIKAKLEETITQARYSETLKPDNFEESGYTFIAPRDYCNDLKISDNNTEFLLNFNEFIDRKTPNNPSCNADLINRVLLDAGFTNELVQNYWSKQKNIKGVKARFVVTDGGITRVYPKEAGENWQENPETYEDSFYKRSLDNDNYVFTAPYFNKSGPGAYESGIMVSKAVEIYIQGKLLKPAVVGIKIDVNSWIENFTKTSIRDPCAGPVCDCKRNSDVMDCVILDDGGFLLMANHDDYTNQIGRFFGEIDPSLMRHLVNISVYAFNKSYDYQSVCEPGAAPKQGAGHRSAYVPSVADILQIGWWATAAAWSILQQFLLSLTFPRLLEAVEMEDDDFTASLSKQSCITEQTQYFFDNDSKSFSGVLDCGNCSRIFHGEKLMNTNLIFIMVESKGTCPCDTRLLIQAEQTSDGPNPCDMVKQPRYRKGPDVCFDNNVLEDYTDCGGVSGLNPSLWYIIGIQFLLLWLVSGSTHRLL

Structure (SMILES) | Ki [1, 2] [µM] | Ki (human μ-opioid receptor; [3]) [µM] | Ki [1] [µM] | Ki (human μ-opioid receptor) [µM]
CNCCC(Oc1ccccc1-n1nc2c(N(C)C)nnc(C)c2c1C)c1ccc(F)cc1 (stereo not drawn) [Example 42, 2-(2-(1-(4-fluorophenyl)-3-(methylamino)propoxy)phenyl)-N,N,3,4-tetramethyl-2H-pyrazolo[3,4-d]pyridazin-7-amine] |  |  | < 0.5 | > 0.5
CNCCC(Oc1cc(C#N)ccc1-n1nc2c(N(C)C)nnc(C)c2c1C)c1ccccc1 (stereo not drawn) [Example 85, 4-(7-(Dimethylamino)-3,4-dimethyl-2H-pyrazolo[3,4-d]pyridazin-2-yl)-3-(3-(methylamino)-1-phenylpropoxy)benzonitrile] | > 5 | > 0.5 |  | 
Cc1nnc(N(C)C)c2nn(-c3ccccc3OC(c3ccccc3)C3CCNCC3)c(C)c12 (stereo not drawn) [Example 11, N,N,3,4-tetramethyl-2-(2-(phenyl(piperidin-4-yl)methoxy)phenyl)-2H-pyrazolo[3,4-d]pyridazin-7-amine] | 0.5 to 5 | > 0.5 |  | 
CNCCC(Oc1ccccc1-n1nc2c(N(C)C)nnc(C)c2c1C)c1ccccc1F (stereo not drawn) [Example 41, 2-(2-(1-(2-fluorophenyl)-3-(methylamino)propoxy)phenyl)-N,N,3,4-tetramethyl-2H-pyrazolo[3,4-d]pyridazin-7-amine] | 0.5 to 5 | > 0.5 |  | 
CNCCC(Oc1ccccc1-n1nc2c(N(C)C)nnc(C)c2c1C)c1ccc(C#N)cc1 (stereo not drawn) [Example 15, 4-(1-(2-(7-(dimethylamino)-3,4-dimethyl-2H-pyrazolo[3,4-d]pyridazin-2-yl)phenoxy)-3-(methylamino)propyl)benzonitrile] | 0.5 to 5 | > 0.5 |  | 

Now from value to molecule, other results behind:

Ki [1, 2] [µM] | Ki (human μ-opioid receptor; [3]) [µM] | Structure (SMILES) | Ki [1] [µM] | Ki (human μ-opioid receptor) [µM]
0.5 to 5 | > 0.5 | CNCCC(Oc1cc(O)ccc1-n1nc2c(N(C)C)nnc(C)c2c1C)c1ccccc1 (stereo not drawn) [Example 98, 4-(7-(dimethylamino)-3,4-dimethyl-2H-pyrazolo[3,4-d]pyridazin-2-yl)-3-(3-(methylamino)-1-phenylpropoxy)phenol] |  | 
0.5 to 5 | > 0.5 | CNCCC(Oc1ccccc1-n1nc2c(N(C)C)nnc(C)c2c1C)c1ccc(C(N)=O)cc1 (stereo not drawn) [Example 92, 4-(1-(2-(7-(dimethylamino)-3,4-dimethyl-2H-pyrazolo[3,4-d]pyridazin-2-yl)phenoxy)-3-(methylamino)propyl)benzamide] |  | 
0.5 to 5 | > 0.5 | CNCCC(Oc1ccc(O)cc1-n1nc2c(N(C)C)nnc(C)c2c1C)c1ccccc1 (stereo not drawn) [Example 97, 3-(7-(Dimethylamino)-3,4-dimethyl-2H-pyrazolo[3,4-d]pyridazin-2-yl)-4-(3-(methylamino)-1-phenylpropoxy)phenol] |  | 
0.5 to 5 | > 0.5 | Cc1nnc(N(C)C)c2nn(-c3ccccc3OC(c3ccccc3)C3CNC3)c(C)c12 (stereo not drawn) [Example 34, 2-(2-(azetidin-3-yl(phenyl)methoxy)phenyl)-N,N,3,4-tetramethyl-2H-pyrazolo[3,4-d]pyridazin-7-amine] |  | 
